Measurements published in article PMC4415987 (Biomarkers : biochemical indicators of exposure, response, …, 2009).

Tests used:
[1] = system: lymphocyte mAChRs; assay type: binding, human; conditions: for LOAEL toward mAChRs: human lymphocytes in vitro, PCB values regardless of the presence of MeHg
[2] = target: T1, MAO-B (Homo sapiens, UniProt P27338); assay: Platelet MAO-B activity; assay type: biochemical; conditions: human platelets in vitro; for LOAEL toward MAO-B: not modified by MeHg addition
T1 sequence (P27338 1-520): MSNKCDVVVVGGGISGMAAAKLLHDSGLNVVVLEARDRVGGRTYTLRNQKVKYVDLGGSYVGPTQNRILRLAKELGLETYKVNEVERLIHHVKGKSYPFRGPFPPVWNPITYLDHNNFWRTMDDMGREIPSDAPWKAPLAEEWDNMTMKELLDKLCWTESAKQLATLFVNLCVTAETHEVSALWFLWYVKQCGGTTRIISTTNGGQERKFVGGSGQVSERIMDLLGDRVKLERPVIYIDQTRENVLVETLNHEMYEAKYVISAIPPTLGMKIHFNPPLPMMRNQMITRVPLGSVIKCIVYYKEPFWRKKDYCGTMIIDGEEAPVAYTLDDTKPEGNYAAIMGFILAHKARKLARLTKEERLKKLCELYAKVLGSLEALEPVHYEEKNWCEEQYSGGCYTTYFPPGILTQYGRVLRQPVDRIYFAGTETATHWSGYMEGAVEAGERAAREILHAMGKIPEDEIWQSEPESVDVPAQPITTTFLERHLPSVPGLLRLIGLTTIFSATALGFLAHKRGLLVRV

[3] = weaning rats given 1 mg MeHg kg−1 daily perinatally, cited from earlier work

Structure (SMILES): Clc1ccc(-c2ccc(Cl)c(Cl)c2Cl)cc1Cl [PCB-105]
- LOAEL toward mAChRs [1]: 1 µM
- LOAEL toward MAO-B [2]: 1 µM

Structure (SMILES): [CH3][Hg][Cl] [MeHg, methylmercury]
- LOAEL toward mAChRs [1]: 1 µM
- IC50 ([1]; read-out: IC50, inhibition of [3H]QNB binding to lymphocyte mAChRs): 5 ± 0.9 µM
- inhibitory effect on MAO-B activity ([2]; MeHg up to 1 mM): negligible
- Hg concentration in the blood ([3]; ref Coccini et al. 2007a): 1.3 ± 0.4 µg/mL
- Hg concentration in the brain ([3]; ref Coccini et al. 2007b): 1.5–2.8 ppm

Structure (SMILES): Clc1ccc(-c2ccc(Cl)cc2Cl)cc1 [PCB-28]
- LOAEL toward mAChRs [1]: 1 µM
- LOAEL toward MAO-B [2]: 10 µM

Structure (SMILES): Clc1ccc(-c2cc(Cl)c(Cl)cc2Cl)cc1Cl [PCB-118]
- LOAEL toward mAChRs [1]: 1 µM
- LOAEL toward MAO-B [2]: 10 µM

Structure (SMILES): Oc1c(Cl)cc(-c2ccc(Cl)c(Cl)c2)c(Cl)c1Cl [4-OH-PCB-107]
- LOAEL toward mAChRs [1]: 1 µM
- LOAEL toward MAO-B [2]: 10 µM

Structure (SMILES): Clc1ccc(-c2ccc(Cl)c(Cl)c2)cc1Cl [PCB-77]
- LOAEL toward mAChRs [1]: 0.1 µM
- LOAEL toward MAO-B [2]: 10 µM

Structure (SMILES): Clc1cc(Cl)c(-c2cc(Cl)c(Cl)cc2Cl)cc1Cl [PCB-153, 2,2′,4,4′,5,5′-hexachlorobiphenyl]
- LOAEL toward mAChRs [1]: 1 µM
- IC50, MAO-B activity ([2]; in the presence or absence of 1 mM MeHg): No effect
